Assay results: patent US4260758A, “Pyrazolo (3,4-d) pyrimidines and methods of making” (Burroughs Wellcome Co., priority 1979, dated 1981)

Tested on: Eimeria Tenella (Weybridge) sporozites
Test: in vitro anti-coccidial activity, primary explant cultures of chick embryo liver cells with sporozites
Assay type: cell-based
Conditions: with sulphaquinoxaline 0.01 μg/ml and diaveridine 0.031 μg/ml
Protocol: The anti-coccidial activity of compounds of formula (III) alone and in combination with a mixture of diaveridine (DV) and sulphaquinoxaline (SQX) in vitro was tested according to the following procedure.
Using standard test procedures employing primary explant cultures of chick embryo liver cells and a suspension of Eimeria Tenella (Weybridge) sporozites the activity of the compounds was determined at various concentrations. In the above test, each test compound was used either alone or in combination with sulphaquinoxaline (0.01 μg/ml) and diaveridine (0.031 μg/ml). It should be noted that the minimum active anti-coccidial amounts of sulphaquinoxaline and diaveridine are 0.024 μg/ml and 0.098 μg/ml respectively.
The following results were obtained wherein activity is expressed as follows: […]

| Compound | Activity, with DV/SQX (100 μg/ml) | Activity, with DV/SQX (25 μg/ml) |
| --- | --- | --- |
| COC(=O)C1=NN(C)c2nc(N)[nH]c(=O)c2C(c2cc(OC)c(OC)c(OC)c2)=C1 [Example 6, 8-Amino-3-carbomethoxy-1-methyl-5-(3,4,5-trimethoxyphenyl)-1H-pyrimido{4,5-c}-1,2-diazepin-6(7H)-one] | 5 (No parasite development) | – |
| CCOC(=O)C1=NN(C)c2nc(N)[nH]c(=O)c2C(c2ccc(OC)cc2OC)=C1 [Example 7, 8-Amino-3-carbethoxy-1-methyl-5-(2,4-dimethoxyphenyl)-1H-pyrimido{4,5-c}-1,2-diazepin-6(7H)-one] | 5 (No parasite development) | 5 (No parasite development) |
